The record followed here is publication PMC5784132, “Investigation of 20S-hydroxyvitamin D3 analogs and their 1α-OH derivatives as potent vitamin D receptor agonists with anti-inflammatory activities” (Scientific Reports, 2018).

One series relates to IFNγ production. Nature of the series: IFNγ inhibition assay in anti-CD3 activated splenocytes. To be noted: for activity at 0.1 µM: Mus musculus, Splenocyte, 72 h, read-out: IFNγ (ratio ± SD).
The target in another series is T1, mouse CYP27B1 (Mus musculus, UniProt O35084).
T1 construct: made in house; host or cells: E. coli
T1 sequence (O35084 1-507): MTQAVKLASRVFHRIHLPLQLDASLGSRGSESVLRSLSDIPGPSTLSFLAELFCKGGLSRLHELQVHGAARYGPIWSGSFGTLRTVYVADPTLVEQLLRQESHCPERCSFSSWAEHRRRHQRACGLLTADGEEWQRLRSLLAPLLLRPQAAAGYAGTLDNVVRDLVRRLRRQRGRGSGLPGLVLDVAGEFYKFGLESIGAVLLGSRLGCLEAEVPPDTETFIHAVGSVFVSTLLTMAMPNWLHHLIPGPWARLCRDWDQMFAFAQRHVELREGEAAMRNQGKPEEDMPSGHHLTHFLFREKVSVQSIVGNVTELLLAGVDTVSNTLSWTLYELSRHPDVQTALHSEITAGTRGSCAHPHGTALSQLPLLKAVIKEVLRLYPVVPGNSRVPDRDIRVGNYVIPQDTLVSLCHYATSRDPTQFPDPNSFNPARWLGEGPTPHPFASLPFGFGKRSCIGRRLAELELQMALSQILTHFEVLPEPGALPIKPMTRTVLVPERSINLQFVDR
Put plainly: Metabolism (1α-hydroxylation) of analogs by mouse CYP27B1. The class given is in vitro ADME. The protocol:
In order to make the 1α-OH derivatives of the 20S(OH)D3 analogs enzymatically, and to assess their likely capacity to be 1α-hydroxylated in vivo, the ability of mouse CYP27B1 to hydroxylate these metabolites was examined. 25(OH)D3, the major natural substrate for CYP27B1[2],[30], was included for comparison. The 20S(OH)D3 analogs were incorporated into phospholipid vesicles and incubated with CYP27B1, then the extent of their metabolism was determined by HPLC (Table 2). All analogs tested except 33 were metabolized by CYP27B1. In each case only a single metabolite was produced, assumed to be the 1α-OH derivative based on the known high specificity of the enzyme for the 1α-position[24],[30],[31]. […] Metabolism of 4 was almost twice that of 20S(OH)D3 and metabolism of 23 almost three fold. Thus, the modifications to C24 and/or C25 seen in 13, 4 and 23 enhanced their ability to be metabolized by CYP27B1. […] In contrast, the introduction of an amide linkage into the side chain, as in 33, prevented its hydroxylation by CYP27B1.
Rat CYP24A1, mouse CYP27B1 and adrenodoxin and human adrenodoxin reductase were expressed in E. coli and purified as described before[28],[30],[35]. To test metabolism of each analog, they were incorporated into phospholipid vesicles made from dioleoyl phosphatidylcholine and cardiolipin by sonication, as before[24],[28]. The substrates in vesicles (510 µM phospholipid) were incubated at 37 °C with either CYP24A1 (0.14 µM) or CYP27B1 (0.8 µM) in a reconstituted system containing adrenodoxin (15 µM) and adrenodoxin reductase (0.4 µM). Samples from incubations with CYP24A1 were extracted with dichloromethane and analysed by HPLC using a 25 cm Grace Alltima C18 column, as before[27],[28]. Products (except 33) were separated using an acetonitrile on water gradient (45% to 100% for 20 min then 100% acetonitrile for 40 min at a flow rate of 0.5 mL/min). For the more polar 33, the acetonitrile gradient was 30% to 100% acetonitrile for 30 min then 100% acetonitrile for 20 min, at 0.5 mL/min. Products from incubations with CYP27B1 were similarly extracted with dichloromethane and analyzed by reverse phase HPLC using a 15 cm Grace Smart C18 column and an acetonitrile in water gradient (10 min 45% to 100% acetonitrile then 20 min at 100% acetonitrile, at 0.5 mL/min).

`C=C1CC[C@H](O)C/C1=C/C=C1\CCC[C@@]2(C)[C@H]1CC[C@@H]2[C@@](C)(O)CCOC(C)C` [compound 13]: the activity at 0.1 µM in the series on IFNγ production is 82.4 ± 3.1%. On mouse CYP27B1 (20 min incubation), the “conversion to product by CYP27B1, fold higher than 20S(OH)D3” value was found to be 4.3 fold.
Consider `C=C1CC[C@H](O)C/C1=C/C=C1\CCC[C@@]2(C)[C@H]1CC[C@@H]2[C@@](C)(O)CCCC(C)C` [20S(OH)D3, 20S-hydroxyvitamin D3], for which the “decrease of IFNγ production level” value in the series on IFNγ production (100 nM) is given as 48%. The activity at 0.1 µM in the series on IFNγ production amounted to 51.7 ± 4.6%. Further, on mouse CYP27B1 (0.018 mol/mol phospholipid, 0.8 µM mouse CYP27B1, 20 min, 37 °C), the “Product (% total secosteroids)” value came out at 21.1 % total secosteroids.
